Source: publication PMC8071537
Like-named read-outs stand apart in the source and are kept apart here.

Key:
[1] = in vivo, 10 mg/kg; cited from earlier work
[2] = Pharmacokinetics of oral TPT in rats with zosuquidar and/or Ko143 (Table S2); conditions: TPT 20 mg/kg PO + Ko143 10 mg/kg
Protocol: In the modified Taxol® formulation, TPT was prepared at a concentration of 2 mg/mL
TPT was also dissolved in isotonic saline at a concentration of
Tween® 80 was dissolved in
Oral Administration and Plasma Sampling
claims in published maps and institu-for the oral administration of TPT (20 mg/kg) with or without zosuquidar (25 mg/kg),
formulation. After drug administration, blood sampling was performed at 0, 0.05, 0.12,
The SD rats (male, 7‒8-weeks old, 235‒265 g) were divided into four groups (n = 6‒
Blood sampling was done at 0, 0.033, 0.083,
Pheonix WinNonlin ® software (version 8.0–8.1, Pharsight Corporation, Mountain
View, CA, USA) was used to estimate the PK parameters following oral TP T administra-
tion in rats. Non-compartmental analysis was performed using the plasma TPT concen-
tration–time profiles to obtain the following PK parameters: initial plasma concentration
(C0), area under the plasma concentration–time curve from zero to infinity (AUCINF), elim-
ination half-life (t1/2), apparent volume of distribution (Vd) after oral administration (Vd/F),
total clearance (Clt), and total oral clearance (Clt/F). The maximum plasma concentration
(Cmax) and the time required to reach Cmax (Tmax) were directly determined from the plasma
TPT concentration–time curve. The absolute BA (AB) and the relative BA (RB) of TPT were

[3] = tested on: CYP1A2, CYP2A6, CYP2C8/9, CYP2C19, CYP2D6, CYP2E, CYP3A, or CYP4A; set-up: method as in earlier work; conditions: According to GlaxoSmithKline; cited from earlier work
[4] = set-up: method as in PMID 8853931; conditions: lactone moiety converted to carboxylated open-ring form; cited from earlier work
[5] = Pharmacokinetics of oral TPT in rats with or without dual inhibitor candidates or formulation; conditions: male, Sprague-Dawley, rat, in vivo, 20 mg/kg
Protocol: (§1) For PK studies, the carotid artery in healthy SD rats (male, 7‒8 weeks, 220‒298 g) was catheterized one day before drug administration [29, 30, 31, 32]. Four to six rats were grouped for the oral administration of TPT (20 mg/kg) with or without compounds (2 mg/kg) in the modified Taxol® formulation and the same dose of TPT in saline only.
(§2) The samples were chromatographically separated using a Capcell Pak C18 UG120 column (4.6 mm × 250 mm, 5 μm, Osaka Soda Co. Ltd., Osaka, Japan) with the mobile phase composed of 10 mM phosphate buffer containing 1% triethylamine (TEA) (pH 3.5) and methanol containing 1% TEA (pH 6.5) (56/44, v/v) at a flow rate of 1.0 mL/min for 30 min and detected at an excitation wavelength of 381 nm and an emission wavelength of 527 nm. The injection volume was 50 μL.
(§3) Pheonix WinNonlin® software (version 8.1, Pharsight Corporation, Mountain View, CA, USA) was used to estimate the PK parameters following oral TPT administration to rats. Non-compartmental analysis was performed using the plasma TPT concentration–time profiles to obtain the following PK parameters: area under the plasma concentration–time curve from zero to infinity (AUCINF), elimination half-life (t1/2), apparent volume of distribution after oral administration (Vd/F), and total oral clearance (Clt/F). The maximum plasma concentration (Cmax) and the time required to reach Cmax (Tmax) were directly measured from the plasma TPT concentration–time curve. The relative BA (RB) of TPT was calculated using the Equation (1):RB (%) = (AUCINF po co-administration)/(AUCINF po control) × 100(1)

[6] = in vivo; conditions: male, Sprague-Dawley, rat, po, 20 mg/kg
Protocol: as §1, §2, §3

[7] = set-up: method as in PMID 8853931; conditions: humans; cited from earlier work
[8] = molecular target: T1, P-gp (Homo sapiens, UniProt P08183); conditions: 10 μM DNR, 30 min, vs DNR-only control; zosuquidar 1 μM
Protocol: In this study, the cells were treated with TPT or DNR after incubation with the P-gp and/or BCRP inhibitor candidates or with the excipients for 5 min. When the incubation was complete, the medium containing the substrate and inhibitor candidate or excipient was removed, and the cells were resuspended in cold phosphate buffer saline (PBS) (500 μL). […] The mean fluorescence intensity values were calculated, and at least three independent biological duplicates were performed.
Substrate Drug Accumulation Study by Flow Cytometry
N.Y.; Sivaraman, A.; Naik, R.; Jin, μL) with 10 μM DNR in the presence and/or absence of 1 μM zosuquidar for 30 min or
TPT accumulation in cells resuspended in cold PBS

[9] = molecular target: T1, P-gp; experiment: TPT accumulation by flow cytometry in P-gp-overexpressing MCF-7/ADR cells; conditions: 200 μM TPT, 30 min, vs TPT-only; zosuquidar/Ko143 1 μM
Protocol: In this study, the cells were treated with TPT or DNR after incubation with the P-gp and/or BCRP inhibitor candidates or with the excipients for 5 min. When the incubation was complete, the medium containing the substrate and inhibitor candidate or excipient was removed, and the cells were resuspended in cold phosphate buffer saline (PBS) (500 μL). TPT accumulation in the cells was measured using a flow cytometer (NovoCyte 2060R, ACEA Biosciences Inc., San Diego, CA, USA). The mean fluorescence intensity values were calculated, and at least three independent biological duplicates were performed.

T1 sequence (P08183 whole entry): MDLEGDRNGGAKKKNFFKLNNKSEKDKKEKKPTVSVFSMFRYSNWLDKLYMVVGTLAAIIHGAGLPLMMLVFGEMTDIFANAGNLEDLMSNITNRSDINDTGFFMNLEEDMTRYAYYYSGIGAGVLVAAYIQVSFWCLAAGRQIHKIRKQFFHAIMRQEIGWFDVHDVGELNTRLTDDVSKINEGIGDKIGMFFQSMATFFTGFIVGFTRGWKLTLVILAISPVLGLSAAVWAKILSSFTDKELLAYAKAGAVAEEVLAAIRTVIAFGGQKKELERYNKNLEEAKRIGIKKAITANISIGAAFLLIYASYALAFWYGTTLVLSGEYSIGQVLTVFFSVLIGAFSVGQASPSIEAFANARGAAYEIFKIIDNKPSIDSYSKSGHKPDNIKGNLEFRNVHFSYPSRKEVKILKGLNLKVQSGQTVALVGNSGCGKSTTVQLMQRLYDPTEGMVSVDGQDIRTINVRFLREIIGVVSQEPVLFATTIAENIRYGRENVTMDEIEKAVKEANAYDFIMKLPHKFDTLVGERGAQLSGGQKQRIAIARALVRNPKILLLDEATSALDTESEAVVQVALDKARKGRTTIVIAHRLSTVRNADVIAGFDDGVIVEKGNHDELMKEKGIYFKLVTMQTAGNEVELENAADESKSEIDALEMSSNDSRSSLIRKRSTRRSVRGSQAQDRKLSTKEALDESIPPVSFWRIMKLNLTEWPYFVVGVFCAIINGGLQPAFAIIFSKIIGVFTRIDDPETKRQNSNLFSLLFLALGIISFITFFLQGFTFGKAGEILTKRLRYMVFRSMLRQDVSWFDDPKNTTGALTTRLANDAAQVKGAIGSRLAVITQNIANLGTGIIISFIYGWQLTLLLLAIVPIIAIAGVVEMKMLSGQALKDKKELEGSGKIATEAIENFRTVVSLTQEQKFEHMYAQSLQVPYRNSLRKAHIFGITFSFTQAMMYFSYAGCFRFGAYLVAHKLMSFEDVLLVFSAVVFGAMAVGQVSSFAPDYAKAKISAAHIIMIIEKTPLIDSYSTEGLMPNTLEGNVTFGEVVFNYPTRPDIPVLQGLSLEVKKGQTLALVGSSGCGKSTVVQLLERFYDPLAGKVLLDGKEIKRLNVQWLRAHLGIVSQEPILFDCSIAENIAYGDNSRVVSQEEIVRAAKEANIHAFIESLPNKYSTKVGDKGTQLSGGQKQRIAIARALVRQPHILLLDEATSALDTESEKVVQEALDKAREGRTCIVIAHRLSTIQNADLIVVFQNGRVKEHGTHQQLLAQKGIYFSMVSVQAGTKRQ

For silymarin, the “Vd/F and Clt/F of PTX” value [1] is listed as “decreased”.
For `COc1ccc2c3c([nH]c2c1)[C@H](CC(C)C)N1C(=O)[C@H](CCC(=O)OC(C)(C)C)NC(=O)[C@@H]1C3` [Ko143], the “enhanced absorption of TPT” value [2] was “>two-fold”.
For `CC[C@@]1(O)C(=O)OCc2c1cc1n(c2=O)Cc2cc3c(CN(C)C)c(O)ccc3nc2-1` [TPT, Topotecan], the “in vitro activity of CYP1A2, CYP2A6, CYP2C8/9, CYP2C19, CYP2D6, CYP2E, CYP3A, or CYP4A” value [3] is given as “does not alter”, the “stability under physiological pH” value [4] is given as “unstable” and the Vd/F [5] is given as 42.1 ± 14.1 L. The half-life [5] was 3.39 ± 1.09 h, the AUC(0-inf) [6] was 2360 ± 543 ng·h/mL and the Cmax [6] was 727 ± 265 ng/mL. For the same molecule, the Tmax [6] was 0.5 to 1 h, the half-life [7] was 3 h and the “hepatic metabolism: amount of N-desmethyl TPT (of the total amount)” value [7] was < 7%. The “oral BA of active TPT” value [7] was “approximately 35%” and the “renal excretion (of the total administered dose)” value [7] was “approximately 40%”.
In the case of `O[C@@H](COc1cccc2ncccc12)CN1CCN([C@@H]2c3ccccc3[C@@H]3[C@H](c4ccccc42)C3(F)F)CC1` [zosuquidar, Zosuquidar], the “increase in DNR accumulation in P-gp-overexpressing cells” value [8] is reported as “approximately three-fold increase” and the “TPT accumulation in ADR cells” value [9] is reported as “no significant difference”.
